# Numbered stars: 1 amine (or outer) side, 2 acyl side, 3 side chain; on linkers, the order of the positions; unused ones are H or OH. Bridge positions count the residues as written; N and C are the ends. Peptide text beside a SMILES is read from it. CH2 = C([*:1])[*:2]
# Target: Type-2 angiotensin II receptor (Sus scrofa)
# Assay: Binding affinity for Angiotensin II receptor type 2 using [125I]- Ang II in pig uterus myometrium
row,Structure (SMILES),Ki
1,CC(C)[C@H](NC(=O)[C@H](C)NC(=O)[C@@H](N)CC(=O)O)C(=O)Nc1ccc2c(c1)CN(CC(=O)N[C@@H](Cc1cnc[nH]1)C(=O)N1CCC[C@H]1C(=O)N[C@@H](Cc1ccccc1)C(=O)O)C(=O)[C@H](Cc1ccc(O)cc1)N2 [Angiotensin II analogue],> 10 µM
2,CC(C)[C@H](NC(=O)[C@H](CCCNC(=N)N)NC(=O)[C@@H](N)CC(=O)O)C(=O)N[C@@H](Cc1ccc(O)cc1)C(=O)Nc1ccc2c(c1)CN(CC(=O)N[C@@H](Cc1ccccc1)C(=O)O)C(=O)[C@H](Cc1cnc[nH]1)N2 [Angiotensin II analogue],> 10 µM
3,N=C(N)NCCC[C@H](NC(=O)[C@@H](N)CC(=O)O)C(=O)Nc1ccc2c(c1)CN(CC(=O)N[C@@H](Cc1cnc[nH]1)C(=O)N1CCC[C@H]1C(=O)N[C@@H](Cc1ccccc1)C(=O)O)C(=O)[C@H](Cc1ccc(O)cc1)N2 [Angiotensin II analogue],> 10 µM
4,N=C(N)NCCC[C@H](NC(=O)[C@@H](N)CC(=O)O)C(=O)N[C@H]1CSCSC[C@@H](C(=O)N[C@@H](Cc2cnc[nH]2)C(=O)N2CCC[C@H]2C(=O)N[C@@H](Cc2ccccc2)C(=O)O)NC(=O)[C@H](Cc2ccc(O)cc2)NC1=O [Angiotensin II analogue] (H-DRCYCHPF-OH; linker 3-5 via CH2),0.00062 µM
